Consider two compounds from patent publication US4083951A, “Pharmaceutical composition” (Beecham Group Limited, priority 1976, dated 1978).

Molecules are shown by their SMILES.

Series [1] deals with gastric erosions. Put plainly: gastric irritancy in starved rats, 1 hour contact time. In kind it is in vivo, rat. To be noted: rats fasted 18 hr. How it is done: When tested in starved rats (18 hr. fasted) with a 1 hour contact time the following results were obtained:
*Mixture made from dry compounds
**Constituents dosed as solutions

Series [2] deals with phenylquinone induced writhing. The experiment in a line: phenylquinone induced writhing in the mouse (analgesic effects). To be noted: dose in terms of acetyl salicylate content, mixture at 2:1 ratio of equivalents, read-out: ED50 (analgesic effect). In kind it is in vivo. How it is done:
Sodium acetyl salicylate and mixtures of sodium acetyl salicylate and ferrous sulphate (2:1 ratio of equivalents) were tested against phenylquinone induced writhing in the mouse. Dose responses were plotted in terms of acetyl salicylate content and the following ED50 values obtained: […]

For `CC(=O)Oc1ccccc1C(=O)O` [Sodium acetyl salicylate], the entries for the “% incidence gastric erosions” value in series [1] (dose 160 mg/kg) and in series [1] (dose 338 mg/kg) were 88% and 75%, respectively. In addition, in series [2], the median effective dose (ED50) was found to be 56 mg/kg.

For `CC(=O)Oc1ccccc1C(=O)O` [Calcium acetyl salicylate], in series [1] (dose 100 mg/kg), the “% incidence gastric erosions” value is reported as 25%.
